According to patent US7825068B2, “Heterocyclylethylcarboxamide derivatives” (Bayer Cropscience AG, priority 2005, dated 2010):

Key:
Pyrenophora teres = experiment: In vivo test on Pyrenophora teres (preventive spray on barley plants); conditions: 330 ppm; comparison compounds of WO 2004/074280
Procedure: The active ingredient tested is prepared by potter homogenisation in a concentrated suspension type formulation at 100 g/l. […] Barley plants (Express variety) in starter cups, sown on a 50/50 peat soil-pozzolana substrate and grown at 12° C., are treated at the 1-leaf stage (10 cm tall) by spraying with the aqueous suspension described above. Plants, used as controls, are treated with an aqueous solution not containing the active material. After 24 hours, the plants are contaminated by spraying them with an aqueous suspension of Pyrenophora teres spores (12,000 spores per ml). The spores are collected from a 12-day-old culture. The contaminated barley plants are incubated for 24 hours at about 20° C. and at 100% relative humidity, and then for 12 days at 80% relative humidity. Grading is carried out 12 days after the contamination, in comparison with the control plants.

Alternaria brassicae = experiment: In vivo test on Alternaria brassicae (preventive spray on radish plants); conditions: for efficacy against Alternaria brassicae: 330 ppm, comparison compounds of WO 2004/074280
Procedure: The active ingredient tested is prepared by potter homogenisation in a concentrated suspension type formulation at 100 g/l. […] Radish plants (Pernot variety) in starter cups, sown on a 50/50 peat soil-pozzolana substrate and grown at 18-20° C., are treated at the cotyledon stage by spraying with the aqueous suspension described above. Plants, used as controls, are treated with an aqueous solution not containing the active material. After 24 hours, the plants are contaminated by spraying them with an aqueous suspension of Alternaria brassicae spores (40,000 spores per cm^3). The spores are collected from a 12-13-day-old culture. The contaminated radish plants are incubated for 6-7 days at about 18° C., under a humid atmosphere. Grading is carried out 6 to 7 days after the contamination, in comparison with the control plants.

Row | Structure (SMILES) | efficacy against Pyrenophora teres (Pyrenophora teres) | efficacy against Alternaria brassicae (Alternaria brassicae) | protection (good (at least 50%) to total) (Alternaria brassicae; dose of 110 ppm, radish plants (Pernot variety), grading 6 to 7 days after contamination, in comparison with control plants)
1 | Cc1c(C(=O)NCCc2ncc(C(F)(F)F)cc2Cl)cnn1-c1ccccc1 [Compound J9, N-{2-[3-chloro-5-(trifluoromethyl)pyridin-2-yl]ethyl}-5-methyl-1-phenyl-1H-pyrazole-4-carboxamide] | no efficacy | no efficacy | 
2 | CC1=C(C(=O)NCCc2nc(Cl)ccc2Cl)SCCO1 [Compound V10, N-[2-(3,6-dichloropyridin-2-yl)ethyl]-2-methyl-5,6-dihydro-1,4-oxathiine-3-carboxamide] | no efficacy | no efficacy | 
3 | Cc1cc(C(=O)NCCc2nc(F)c(F)cc2F)c(C)o1 [Compound B17, 2,5-dimethyl-N-[2-(3,5,6-trifluoropyridin-2-yl)ethyl]-3-furamide] | no efficacy | no efficacy | 
4 | O=C(NCCc1ccc(Cl)cn1)c1cccnc1Cl [Compound R32, 2-chloro-N-[2-(5-chloropyridin-2-yl)ethyl]nicotinamide] | no efficacy | no efficacy | 
5 | Cn1cccc1C(=O)NCCc1ncc(C(F)(F)F)cc1Cl [Compound F1, N-{2-[3-chloro-5-(trifluoromethyl)pyridin-2-yl]ethyl}-1-methyl-1H-pyrrole-2-carboxamide] | no efficacy | no efficacy | 
6 | O=C(NCCc1ncc(C(F)(F)F)cc1Cl)C1CCN(C(=O)OCc2ccccc2)CC1 [Compound T1, benzyl 4-[({2-[3-chloro-5-(trifluoromethyl)pyridin-2-yl]ethyl}amino)carbonyl]piperidine-1-carboxylate] | no efficacy | no efficacy | 
7 | Cc1onc(-c2ccccc2)c1C(=O)NCCc1ncc(C(F)(F)F)cc1Cl [Compound M3, N-{2-[3-chloro-5-(trifluoromethyl)pyridin-2-yl]ethyl}-5-methyl-3-phenylisoxazole-4-carboxamide] | no efficacy | no efficacy | 
8 | Cc1nc(-c2ccccc2)sc1C(=O)NCCc1ncc(C(F)(F)F)cc1Cl [Compound H3, N-{2-[3-chloro-5-(trifluoromethyl)pyridin-2-yl]ethyl}-4-methyl-2-phenyl-1,3-thiazole-5-carboxamide] | no efficacy | no efficacy | 
9 | CSc1sc(C(=O)NCCc2ncc(C(F)(F)F)cc2Cl)c(I)c1S(=O)(=O)C(C)C [Compound C10, N-{2-[3-chloro-5-(trifluoromethyl)pyridin-2-yl]ethyl}-3-iodo-4-(isopropylsulfonyl)-5-(methylthio)thiophene-2-carboxamide] | no efficacy | no efficacy | 
10 | Cc1cc(C(=O)NCCc2cn(C)nc2C(F)(F)F)c(C(F)(F)F)o1 [Compound J-3] |  |  | at least 50%
11 | CC1=C(C(=O)NCCc2ncc(Cl)cc2F)SCCO1 [Compound V9, N-[2-(5-chloro-3-fluoropyridin-2-yl)ethyl]-2-methyl-5,6-dihydro-1,4-oxathiine-3-carboxamide] | no efficacy | no efficacy | 
